# Assay results as given in US20210369615A1, “SOLID ORAL FORMULATIONS OF AMPHOTERICIN B” (iCo Therapeutics Inc., priority 2018, published 2021).
# Where “and” joins values, the source holds several entries; their conditions need not be identical. Equal values may be shown once.
# Test: Stability study: related substances (% area) after storage
# Type: physicochemical
# Description: A stability study was initiated for Formulation 1A and Formulation 2A. The capsules were packaged in 30 cc HDPE bottles with induction sealed PP caps and the bottles were stored under ICH stability conditions in humidity chambers at 25° C./60% RH and under accelerated conditions, 40° C./75% RH. The capsules were stored at 4-8° C. directly after preparation until they were placed into the stability chambers. […]
# Another stability study was initiated for Formulation 5A. The capsules were packaged as per Formulation 1A and Formulation 2A and store under the same conditions.
# An Amphotericin B/TPGS/Peceol/Gelucire 44/14 semi-solid lipid based formulation in hard shell capsule was prepared (Formulation 5A) and stored under ICH controlled stability conditions. […] The dissolution profile however decreased (Table 23 and FIG. 9). As indicated before, this behavior could be a result a recrystallization or aggregation of the AmpB.
structure (smiles),measurement,setting,value
C[C@@H]1[C@H](O)[C@@H](C)/C=C/C=C/C=C/C=C/C=C/C=C/C=C/[C@H](O[C@@H]2O[C@H](C)[C@@H](O)[C@H](N)[C@@H]2O)C[C@@H]2O[C@](O)(C[C@@H](O)C[C@@H](O)[C@H](O)CC[C@@H](O)C[C@@H](O)CC(=O)O[C@H]1C)C[C@H](O)[C@H]2C(=O)O [AmpB (Corealis lot drawing 729)],"Related Substances, Total % area",T = 0,7.67 % area
same,"Related Substances, individual peak % area","T = 0, individual peaks ≥ 0.10%, RRT given",0.54 % area and 0.12 % area (2×) and 0.32 % area and 0.33 % area and 0.24 % area and 0.60 % area and 0.31 % area and 0.65 % area and 0.69 % area and 0.30 % area and 1.00 % area and 1.47 % area and 0.82 % area and 0.14 % area
same,"Related Substances, Total % area",T = 1 month 40° C./75% RH,7.71 % area
same,"Related Substances, individual peak % area","T = 1 month 40° C./75% RH, individual peaks, RRT",0.79 % area and 0.13 % area and 0.57 % area and 0.16 % area and 0.32 % area and 0.33 % area and 0.24 % area and 0.59 % area and 0.31 % area (2×) and 0.11 % area and 0.62 % area and 0.69 % area and 1.00 % area and 1.52 % area
same,"Related Substances, Total % area",T = 3 months 25° C./60% RH,7.38 % area
same,"Related Substances, individual peak % area","T = 3 months 25° C./60% RH, individual peaks, RRT",0.14 % area (2×) and 0.78 % area and 0.15 % area (3×) and 0.48 % area and 0.35 % area and 0.22 % area and 0.54 % area and 0.25 % area and 0.57 % area and 0.77 % area and 0.13 % area and 0.16 % area and 1.03 % area and 1.37 % area
same,"Related Substances, Total % area",T = 6 months 25° C./60% RH,7.18 % area
same,"Related Substances, individual peak % area","T = 6 months 25° C./60% RH, individual peaks, RRT",0.12 % area and 0.86 % area and 0.14 % area (2×) and 0.52 % area and 0.64 % area and 0.20 % area and 0.71 % area (2×) and 0.56 % area and 0.10 % area and 0.15 % area and 1.01 % area and 1.32 % area
same,"Related Substances, Total % area",T = 6 months 40° C./75% RH,7.32 % area
